Here are results for 3 compounds from patent publication US11434221B2, “Pyrazine-4-carbamate or -urea derivatives as herbicides” (Syngenta Participations AG, priority 2017, dated 2022).

The first test has as its system Alopecurus myosuroides (ALOMY). In words: Pre-emergence herbicidal activity, glasshouse pot test. In kind it is in vivo. Details: key: 5=total damage to plant; 0=no damage to plant. The note with it: Rate 250 g/ha; sprayed one day after sowing; evaluated after 13 days. In short, it runs like this: (§1)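 Seeds sown in standard soil in pots, kept one day in glasshouse (24/16 °C day/night, 14 h light, 65% humidity), then sprayed pre-emergence with aqueous solution from acetone/water (50:50) formulation with 0.5% Tween 20. Grown under same conditions, watered twice daily; damage scored after 13 days (0 = none, 5 = total).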
In the case of `CSc1cncc(-c2cnc(NC(=O)OC(C)(C)C)c(SC)n2)c1` [Compound H25], the “Control of weed species after pre-emergence application, ALOMY (damage score 0-5)” value amounted to 0.

Still in this test, the particulars now being: Rate 1000 g/ha; sprayed one day after sowing; evaluated after 13 days.
In the case of `COC(=O)c1nc(-c2cncc(F)c2)cnc1N(C(=O)OC(C)(C)C)C(=O)OC(C)(C)C` [Compound H26], the “Control of weed species after pre-emergence application, ALOMY (damage score 0-5)” value was determined as 0.
Still for that read-out and setting: with `CC(C)(C)OC(=O)Nc1ncc(-c2cncc(F)c2)nc1C(F)F` [Compound H28] the figure was 3.

The test system of a further test is Setaria faberi (SETFA). Described as above. In kind it is in vivo. Details: key: 5=total damage to plant; 0=no damage to plant. The note with it: Rate 250 g/ha; sprayed one day after sowing; evaluated after 13 days. Summed up: as §1
`CSc1cncc(-c2cnc(NC(=O)OC(C)(C)C)c(SC)n2)c1` [Compound H25]: the “Control of weed species after pre-emergence application, SETFA (damage score 0-5)” value is given as 0.

The test is the same for the next values; noted with them: Rate 1000 g/ha; sprayed one day after sowing; evaluated after 13 days.
Regarding `COC(=O)c1nc(-c2cncc(F)c2)cnc1N(C(=O)OC(C)(C)C)C(=O)OC(C)(C)C` [Compound H26], the “Control of weed species after pre-emergence application, SETFA (damage score 0-5)” value was found to be 5.
Same read-out and setting: with `CC(C)(C)OC(=O)Nc1ncc(-c2cncc(F)c2)nc1C(F)F` [Compound H28] the figure was 4.

The test system of the next test is Lolium perenne (LOLPE). Described as above. In kind it is in vivo. Set-up: key: 5=total damage to plant; 0=no damage to plant. The note with it: Rate 250 g/ha; sprayed one day after sowing; evaluated after 13 days. In short, it runs like this:
as §1
For the compound `CSc1cncc(-c2cnc(NC(=O)OC(C)(C)C)c(SC)n2)c1` [Compound H25], the “Control of weed species after pre-emergence application, LOLPE (damage score 0-5)” value was found to be 0.

The same test, now with this note: Rate 1000 g/ha; sprayed one day after sowing; evaluated after 13 days.
With `COC(=O)c1nc(-c2cncc(F)c2)cnc1N(C(=O)OC(C)(C)C)C(=O)OC(C)(C)C` [Compound H26], the “Control of weed species after pre-emergence application, LOLPE (damage score 0-5)” value was determined as 0.
The same measure, in the same setting: the value for `CC(C)(C)OC(=O)Nc1ncc(-c2cncc(F)c2)nc1C(F)F` [Compound H28] was 0.

The test system of the next test is Avena fatua (AVEFA). The test is described as above. In kind it is in vivo. Details: key: 5=total damage to plant; 0=no damage to plant. The note with it: Rate 250 g/ha; sprayed one day after sowing; evaluated after 13 days. Summed up:
as §1
On to `CSc1cncc(-c2cnc(NC(=O)OC(C)(C)C)c(SC)n2)c1` [Compound H25], for which the “Control of weed species after pre-emergence application, AVEFA (damage score 0-5)” value stood at 0.

The test is the same for the next values; noted with them: Rate 1000 g/ha; sprayed one day after sowing; evaluated after 13 days.
Consider `COC(=O)c1nc(-c2cncc(F)c2)cnc1N(C(=O)OC(C)(C)C)C(=O)OC(C)(C)C` [Compound H26], for which the “Control of weed species after pre-emergence application, AVEFA (damage score 0-5)” value worked out at 0.
Same read-out and setting: the value for `CC(C)(C)OC(=O)Nc1ncc(-c2cncc(F)c2)nc1C(F)F` [Compound H28] was 2.

For the next test, the system named is Echinochloa crus-galli (ECHCG). The test is described as above. In kind it is in vivo. Set-up: key: 5=total damage to plant; 0=no damage to plant. The conditions noted are these: Rate 250 g/ha; sprayed one day after sowing; evaluated after 13 days. In short, it runs like this:
as §1
In the case of `CSc1cncc(-c2cnc(NC(=O)OC(C)(C)C)c(SC)n2)c1` [Compound H25], the “Control of weed species after pre-emergence application, ECHCG (damage score 0-5)” value came out at 0.

The same test, now with this note: Rate 1000 g/ha; sprayed one day after sowing; evaluated after 13 days.
With `COC(=O)c1nc(-c2cncc(F)c2)cnc1N(C(=O)OC(C)(C)C)C(=O)OC(C)(C)C` [Compound H26], the “Control of weed species after pre-emergence application, ECHCG (damage score 0-5)” value is 0.
The same measure, in the same setting: with `CC(C)(C)OC(=O)Nc1ncc(-c2cncc(F)c2)nc1C(F)F` [Compound H28] the figure was 2.

Another test deals with Triticum aestivium (TRZAW). The description is as above. In kind it is in vivo. Details: key: 5=total damage to plant; 0=no damage to plant. The conditions noted are these: Rate 250 g/ha; sprayed one day after sowing; evaluated after 13 days. In short, it runs like this: as §1
Consider `CSc1cncc(-c2cnc(NC(=O)OC(C)(C)C)c(SC)n2)c1` [Compound H25], for which the “Control of weed species after pre-emergence application, TRAZW (damage score 0-5)” value is recorded as 0.

The test is the same for the next values; noted with them: Rate 1000 g/ha; sprayed one day after sowing; evaluated after 13 days.
As for `COC(=O)c1nc(-c2cncc(F)c2)cnc1N(C(=O)OC(C)(C)C)C(=O)OC(C)(C)C` [Compound H26], the “Control of weed species after pre-emergence application, TRAZW (damage score 0-5)” value is 0.
On the same count and under the same terms, with `CC(C)(C)OC(=O)Nc1ncc(-c2cncc(F)c2)nc1C(F)F` [Compound H28] the figure was 0.

The subject of the next test is Alopecurus myosuroides (ALOMY). The test can be described thus: Post-emergence herbicidal activity, glasshouse pot test. In kind it is in vivo. Details: key: 5=total damage to plant; 0=no damage to plant. The conditions noted are these: Rate 250 g/ha; sprayed after 8 days cultivation; evaluated after 13 days. In short, it runs like this: (§2)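 Post-emergence spray, 8-day-old pot-grown plants; vehicle acetone/water 50:50 + 0.5% Tween 20. Glasshouse 24/16° C day/night, 14 h light, 65% RH, watered 2×/day. Visual damage rated day 13, 0–5.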
As to `CSc1cncc(-c2cnc(NC(=O)OC(C)(C)C)c(SC)n2)c1` [Compound H25], the “Control of weed species after post-emergence application, ALOMY (damage score 0-5)” value is 0.

The same test, now with this note: Rate 1000 g/ha; sprayed after 8 days cultivation; evaluated after 13 days.
For the compound `COC(=O)c1nc(-c2cncc(F)c2)cnc1N(C(=O)OC(C)(C)C)C(=O)OC(C)(C)C` [Compound H26], the “Control of weed species after post-emergence application, ALOMY (damage score 0-5)” value was found to be 0.
The same measure, in the same setting: with `CC(C)(C)OC(=O)Nc1ncc(-c2cncc(F)c2)nc1C(F)F` [Compound H28] the figure was 0.

The next test has as its system Setaria faberi (SETFA). The test is described as above. The note with it: Rate 250 g/ha; sprayed after 8 days cultivation; evaluated after 13 days. In kind it is in vivo. Set-up: key: 5=total damage to plant; 0=no damage to plant. Summed up:
as §2
With `CSc1cncc(-c2cnc(NC(=O)OC(C)(C)C)c(SC)n2)c1` [Compound H25], the “Control of weed species after post-emergence application, SETFA (damage score 0-5)” value is listed as 1.

Staying with this test, now noted: Rate 1000 g/ha; sprayed after 8 days cultivation; evaluated after 13 days.
Consider `COC(=O)c1nc(-c2cncc(F)c2)cnc1N(C(=O)OC(C)(C)C)C(=O)OC(C)(C)C` [Compound H26], for which the “Control of weed species after post-emergence application, SETFA (damage score 0-5)” value came to 5.
Still for that read-out and setting: with `CC(C)(C)OC(=O)Nc1ncc(-c2cncc(F)c2)nc1C(F)F` [Compound H28] the figure was 5.

The test system of another test is Lolium perenne (LOLPE). The test is described as above. In kind it is in vivo. Set-up: key: 5=total damage to plant; 0=no damage to plant. The note with it: Rate 250 g/ha; sprayed after 8 days cultivation; evaluated after 13 days. In short, it runs like this: as §2
Regarding `CSc1cncc(-c2cnc(NC(=O)OC(C)(C)C)c(SC)n2)c1` [Compound H25], the “Control of weed species after post-emergence application, LOLPE (damage score 0-5)” value is given as 1.

Staying with this test, now noted: Rate 1000 g/ha; sprayed after 8 days cultivation; evaluated after 13 days.
In the case of `COC(=O)c1nc(-c2cncc(F)c2)cnc1N(C(=O)OC(C)(C)C)C(=O)OC(C)(C)C` [Compound H26], the “Control of weed species after post-emergence application, LOLPE (damage score 0-5)” value is recorded as 0.
Same read-out and setting: with `CC(C)(C)OC(=O)Nc1ncc(-c2cncc(F)c2)nc1C(F)F` [Compound H28] the figure was 3.

A further test deals with Avena fatua (AVEFA). The test is described as above. In kind it is in vivo. Details: key: 5=total damage to plant; 0=no damage to plant. The note with it: Rate 250 g/ha; sprayed after 8 days cultivation; evaluated after 13 days. Summed up: as §2
`CSc1cncc(-c2cnc(NC(=O)OC(C)(C)C)c(SC)n2)c1` [Compound H25]: the “Control of weed species after post-emergence application, AVEFA (damage score 0-5)” value stood at 1.

Still in this test, the particulars now being: Rate 1000 g/ha; sprayed after 8 days cultivation; evaluated after 13 days.
On to `COC(=O)c1nc(-c2cncc(F)c2)cnc1N(C(=O)OC(C)(C)C)C(=O)OC(C)(C)C` [Compound H26], for which the “Control of weed species after post-emergence application, AVEFA (damage score 0-5)” value was 1.
Same read-out and setting: with `CC(C)(C)OC(=O)Nc1ncc(-c2cncc(F)c2)nc1C(F)F` [Compound H28] the figure was 4.

The subject of a further test is Echinochloa crus-galli (ECHCG). Described as above. The note with it: Rate 250 g/ha; sprayed after 8 days cultivation; evaluated after 13 days. In kind it is in vivo. Details: key: 5=total damage to plant; 0=no damage to plant. Summed up:
as §2
Regarding `CSc1cncc(-c2cnc(NC(=O)OC(C)(C)C)c(SC)n2)c1` [Compound H25], the “Control of weed species after post-emergence application, ECHCG (damage score 0-5)” value came to 1.

Still in this test, the particulars now being: Rate 1000 g/ha; sprayed after 8 days cultivation; evaluated after 13 days.
Consider `COC(=O)c1nc(-c2cncc(F)c2)cnc1N(C(=O)OC(C)(C)C)C(=O)OC(C)(C)C` [Compound H26], for which the “Control of weed species after post-emergence application, ECHCG (damage score 0-5)” value amounted to 3.
On the same count and under the same terms, with `CC(C)(C)OC(=O)Nc1ncc(-c2cncc(F)c2)nc1C(F)F` [Compound H28] the figure was 5.

For the next test, the system named is Triticum aestivium (TRZAW). Described as above. In kind it is in vivo. Set-up: key: 5=total damage to plant; 0=no damage to plant. The note with it: Rate 250 g/ha; sprayed after 8 days cultivation; evaluated after 13 days. In short, it runs like this: as §2
On to `CSc1cncc(-c2cnc(NC(=O)OC(C)(C)C)c(SC)n2)c1` [Compound H25], for which the “Control of weed species after post-emergence application, TRAZW (damage score 0-5)” value is reported as 0.

Staying with this test, now noted: Rate 1000 g/ha; sprayed after 8 days cultivation; evaluated after 13 days.
Consider `COC(=O)c1nc(-c2cncc(F)c2)cnc1N(C(=O)OC(C)(C)C)C(=O)OC(C)(C)C` [Compound H26], for which the “Control of weed species after post-emergence application, TRAZW (damage score 0-5)” value is 1.
The same measure, in the same setting: the value for `CC(C)(C)OC(=O)Nc1ncc(-c2cncc(F)c2)nc1C(F)F` [Compound H28] was 0.
